Where a name gives a salt, the structure may show the parent alone.
Columns and labels:
Type in all cases: cell-based
[1] = molecular target: T1, Voltage-gated inwardly rectifying potassium channel KCNH2 (Homo sapiens, UniProt Q12809); test: Inhibition of wild-type human ERG channel expressed in HEK293 cells assessed as blockade of potassium tail current by whole-cell patch clamp technique
[2] = molecular target: Voltage-gated inwardly rectifying potassium channel KCNH2 (Homo sapiens, UniProt Q12809, F656A); test: Inhibition of human ERG F656A mutant channel expressed in HEK293 cells assessed as blockade of potassium tail current by whole-cell patch clamp technique
[3] = molecular target: T2, Voltage-gated inwardly rectifying potassium channel KCNH2 (Homo sapiens, UniProt Q12809, Y652A); test: Inhibition of human ERG Y652A mutant channel expressed in HEK293 cells assessed as blockade of potassium tail current by whole-cell patch clamp technique
[4] = molecular target: T2, Voltage-gated inwardly rectifying potassium channel KCNH2; test: Inhibition of human ERG Y652A mutant channel expressed in CHO cells by whole-cell patch clamp technique
[5] = molecular target: T1, Voltage-gated inwardly rectifying potassium channel KCNH2; test: Inhibition of wild-type human ERG channel expressed in CHO cells by whole-cell patch clamp technique
[6] = test system: HEK293; test: Ratio IC50 for human ERG F656A mutant channel expressed in HEK293 cells to IC50 for wild-type human ERG channel expressed in HEK293 cells
[7] = test system: HEK293; test: Ratio IC50 for human ERG Y652A mutant channel expressed in HEK293 cells to IC50 for wild-type human ERG channel expressed in HEK293 cells
[8] = molecular target: Voltage-gated inwardly rectifying potassium channel KCNH2 (Homo sapiens, UniProt Q12809, V659A); test: Inhibition of human ERG V659A mutant channel expressed in HEK293 cells assessed decrease in blockade of potassium tail current at 1 mM by whole-cell patch clamp technique; settings: hek293, 1000 µM

| Structure (SMILES) | IC50 [1] | IC50 [2] | IC50 [3] | IC50 [4] | IC50 [5] | Ratio IC50 [6] | Ratio IC50 [7] | inhibition (INH) [8] |
| --- | --- | --- | --- | --- | --- | --- | --- | --- |
| CCCCN1CCCC[C@@H]1C(=O)Nc1c(C)cccc1C | 84 µM | 758 µM | 276 µM | – | – | – | – | – |
| CCCCN1CCCC[C@H]1C(=O)Nc1c(C)cccc1C [LEVOBUPIVACAINE HYDROCHLORIDE] | 13 µM | 1010 µM | 278 µM | 83 µM | 13 µM | – | – | – |
| CCCCN1CCCCC1C(=O)Nc1c(C)cccc1C.Cl (racemic) [BUPIVACAINE HYDROCHLORIDE] | 32 µM | 866 µM | 265 µM | 95 µM | 22 µM | 30 | 10 | Active |
